Source: patent US20250092017A1, “2-PIPERIDYL OR 2-PYRAZOLYL SUBSTITUTED PYRIMIDINE COMPOUND SERVING AS EGFR INHIBITOR” (SUZHOU PUHE BIOPHARMA CO., LTD., priority 2022, published 2025)

Tests used:
[1] = Liver microsome stability test, human; type: in vitro ADME; settings: human liver microsomes 0.5 mg/ml, compound 1 μM, NADPH 1 mM, within 60 minutes
Procedure: The compounds of the present disclosure were subjected to a liver microsome stability test. The compounds to be tested were co-incubated with liver microsomes of different species with or without the addition of NADPH. The final concentration of the compounds to be tested in the test system was 1 μM. The final concentration of NADPH was 1 mM, and the final concentration of liver microsomes was 0.5 mg/ml.

[2] = biological target: Ba/F3-FL-EGFR-del19/T790M (Homo sapiens, UniProt P00533, DEL746-750/T790M, cells depend on it); test: CellTiter-Glo proliferation, Ba/F3-FL-EGFR-del19/T790M; settings: read-out: Ba/F3-FL-EGFR-del19/T790M IC50/nM, 72 hours
[3] = biological target: T1, Ba/F3-TEL-EGFR-L858R-C797S (Homo sapiens, UniProt P00533, C797S/L858R, cells depend on it); test: CellTiter-Glo proliferation, Ba/F3-TEL-EGFR-L858R-C797S; type: cell-based; settings: 72 hours, read-out: Ba/F3-TEL-EGFR-L858R-C797S IC50/nM
T1 construct: fused on or other part: N-terminal TEL (ETV6) oligomerising part fused to the EGFR intracellular/kinase part; P41212 (Transcription factor ETV6)
Outline: (§1)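 Ba/F3 lines dependent on the indicated EGFR variants were treated with compounds at a final DMSO concentration of 0.1% at 37 °C, 5% CO2. Viability was read by CellTiter-Glo luminescence, and inhibition rate was normalised to DMSO-treated cells (max) and medium-only wells (min). IC50 came from inhibition curves.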

[4] = biological target: EGFR (L858R/T790M/C797S) (Homo sapiens, UniProt P00533, C797S/L858R/T790M); test: MSA (Mobility Shift Assay) kinase activity, EGFR-L858R-T790M-C797S; type: biochemical
Outline: (§2)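 Kinase preincubated with compound 10 min at room temperature, then reaction started with ATP plus substrate in 1x kinase buffer and run at room temperature. Substrate-to-product conversion read by mobility shift; % inhibition normalised to no-enzyme and no-compound controls, IC50 from variable-slope four-parameter fit.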

[5] = biological target: EGFR (L858R/C797S) (Homo sapiens, UniProt P00533, C797S/L858R); test: MSA (Mobility Shift Assay) kinase activity, EGFR-L858R-C797S; type: biochemical
Outline: as §2

[6] = biological target: Ba/F3-FL-EGFR-del19-T790M-C797S (Homo sapiens, UniProt P00533, DEL746-750/T790M/C797S, cells depend on it); test: CellTiter-Glo proliferation, Ba/F3-FL-EGFR-del19-T790M-C797S; type: cell-based; settings: 72 hours, read-out: Ba/F3-FL-EGFR-del19-T790M-C797S IC50/nM
Procedure: Promega CellTiter-Glo reagent was used to detect the effects of small molecule inhibitors on the proliferation of three Ba/F3 cell lines (Ba/F3-FL-EGFR-de119, Ba/F3-FL-EGFR-de119-T790M, Ba/F3-FL-EGFR-de119-T790M-C797S).
The cell lines were cultured in an incubator at 37° C. and 5% CO2. Cells were passaged regularly and cells in the logarithmic phase were used for plating. 95 μL of cell suspension was added to each well of the cell plate, and culture medium without cells (containing 0.1% DMSO) was added to the Min control wells. Substance addition for compound detection cell plate: 5 μL of 20× compound working solution was added to the cell culture plate. 5 μL of DMSO-cell culture medium mixture was added to the Max control, with the final DMSO concentration of 0.1%. 5 μL of DMSO-cell culture medium mixture was added to the Max control. The final DMSO concentration was 0.1%.
Cell viability was detected by CellTiter-Glo luminescence assay. Data analysis:
The cell proliferation inhibition rate (Inhibition Rate) data was processed using the following formula: […]
wherein: RLUDrug represents the relative luminescence unit of the cells with the addition of drug, RLUMin represents the luminescence unit of the culture medium, and RLUMax represents the relative luminescence unit of the cells with the addition of DMSO.
The inhibition rates corresponding to different concentrations of compounds were calculated in EXCEL, and then the inhibition rate curve was plotted using GraphPad Prism software and related parameters including the maximum and minimum inhibition rates of cells and IC50 values were calculated.

[7] = biological target: Ba/F3-FL-EGFR-L858R (Homo sapiens, UniProt P00533, L858R, cells depend on it); test: CellTiter-Glo proliferation, Ba/F3-FL-EGFR-L858R; type: cell-based; settings: 72 hours, read-out: Ba/F3-FL-EGFR-L858R IC50/nM
Outline: as §1

Chain of Ba/F3-FL-EGFR-L858R (P00533 whole entry L858R): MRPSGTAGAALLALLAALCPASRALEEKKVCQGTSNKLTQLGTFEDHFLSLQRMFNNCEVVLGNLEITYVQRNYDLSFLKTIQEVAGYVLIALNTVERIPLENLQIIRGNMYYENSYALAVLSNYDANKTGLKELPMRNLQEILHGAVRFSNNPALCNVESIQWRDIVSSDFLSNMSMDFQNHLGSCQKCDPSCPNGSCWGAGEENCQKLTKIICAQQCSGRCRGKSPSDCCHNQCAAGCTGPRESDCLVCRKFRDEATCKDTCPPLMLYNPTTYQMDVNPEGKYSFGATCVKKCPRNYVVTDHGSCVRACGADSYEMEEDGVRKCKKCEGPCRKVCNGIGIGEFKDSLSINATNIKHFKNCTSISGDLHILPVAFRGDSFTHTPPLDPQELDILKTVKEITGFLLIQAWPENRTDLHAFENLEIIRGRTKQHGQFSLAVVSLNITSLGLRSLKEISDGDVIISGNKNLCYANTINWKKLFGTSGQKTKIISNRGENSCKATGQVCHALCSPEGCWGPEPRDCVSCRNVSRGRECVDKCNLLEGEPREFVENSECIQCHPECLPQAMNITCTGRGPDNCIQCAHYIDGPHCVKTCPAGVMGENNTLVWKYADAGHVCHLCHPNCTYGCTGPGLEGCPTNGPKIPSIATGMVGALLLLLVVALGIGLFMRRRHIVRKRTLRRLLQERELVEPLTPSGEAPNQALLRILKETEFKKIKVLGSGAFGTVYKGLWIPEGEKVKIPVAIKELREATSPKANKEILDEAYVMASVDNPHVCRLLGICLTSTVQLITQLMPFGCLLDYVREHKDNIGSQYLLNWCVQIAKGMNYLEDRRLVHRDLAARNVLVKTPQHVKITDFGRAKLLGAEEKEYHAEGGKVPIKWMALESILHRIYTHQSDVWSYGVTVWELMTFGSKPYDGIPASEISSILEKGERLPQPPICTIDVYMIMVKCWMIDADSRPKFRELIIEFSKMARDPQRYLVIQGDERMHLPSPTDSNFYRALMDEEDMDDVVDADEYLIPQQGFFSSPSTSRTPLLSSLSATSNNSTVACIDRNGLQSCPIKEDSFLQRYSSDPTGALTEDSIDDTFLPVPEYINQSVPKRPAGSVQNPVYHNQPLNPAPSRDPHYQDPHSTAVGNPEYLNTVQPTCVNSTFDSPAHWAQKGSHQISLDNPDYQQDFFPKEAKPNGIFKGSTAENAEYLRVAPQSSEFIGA
T1 sequence (P00533 whole entry C797S/L858R, the tested form may be a part): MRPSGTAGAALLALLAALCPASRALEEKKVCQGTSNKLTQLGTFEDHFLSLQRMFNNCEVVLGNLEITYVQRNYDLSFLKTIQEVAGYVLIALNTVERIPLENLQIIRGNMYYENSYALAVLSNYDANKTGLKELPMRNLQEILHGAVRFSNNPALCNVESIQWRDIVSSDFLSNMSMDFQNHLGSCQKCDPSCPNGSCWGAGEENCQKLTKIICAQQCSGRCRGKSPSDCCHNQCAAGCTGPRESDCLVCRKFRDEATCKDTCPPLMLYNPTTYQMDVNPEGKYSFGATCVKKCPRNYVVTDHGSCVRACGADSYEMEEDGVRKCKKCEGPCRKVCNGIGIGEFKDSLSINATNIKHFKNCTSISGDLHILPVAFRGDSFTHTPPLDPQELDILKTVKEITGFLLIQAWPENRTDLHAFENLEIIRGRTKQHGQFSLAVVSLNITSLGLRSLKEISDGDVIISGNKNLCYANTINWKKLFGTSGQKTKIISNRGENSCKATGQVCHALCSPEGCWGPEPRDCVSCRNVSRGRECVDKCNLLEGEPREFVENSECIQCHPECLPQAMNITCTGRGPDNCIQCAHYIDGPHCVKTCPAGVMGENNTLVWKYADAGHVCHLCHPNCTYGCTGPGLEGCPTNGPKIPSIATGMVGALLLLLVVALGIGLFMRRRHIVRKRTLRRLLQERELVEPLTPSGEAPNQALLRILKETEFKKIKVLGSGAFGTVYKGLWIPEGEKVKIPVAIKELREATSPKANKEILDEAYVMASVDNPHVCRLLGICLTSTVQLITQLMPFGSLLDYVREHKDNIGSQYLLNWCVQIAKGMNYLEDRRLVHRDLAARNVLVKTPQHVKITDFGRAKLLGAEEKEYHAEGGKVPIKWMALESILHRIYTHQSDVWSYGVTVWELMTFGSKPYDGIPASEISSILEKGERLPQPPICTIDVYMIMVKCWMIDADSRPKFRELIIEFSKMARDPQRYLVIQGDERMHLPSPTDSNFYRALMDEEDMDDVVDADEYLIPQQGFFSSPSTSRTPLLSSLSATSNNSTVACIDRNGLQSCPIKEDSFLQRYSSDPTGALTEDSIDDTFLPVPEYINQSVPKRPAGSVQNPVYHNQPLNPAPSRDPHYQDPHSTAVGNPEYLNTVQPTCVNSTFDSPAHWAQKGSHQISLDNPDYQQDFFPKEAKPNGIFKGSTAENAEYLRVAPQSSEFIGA
Chain of EGFR (L858R/C797S) (P00533 25-1210 C797S/L858R): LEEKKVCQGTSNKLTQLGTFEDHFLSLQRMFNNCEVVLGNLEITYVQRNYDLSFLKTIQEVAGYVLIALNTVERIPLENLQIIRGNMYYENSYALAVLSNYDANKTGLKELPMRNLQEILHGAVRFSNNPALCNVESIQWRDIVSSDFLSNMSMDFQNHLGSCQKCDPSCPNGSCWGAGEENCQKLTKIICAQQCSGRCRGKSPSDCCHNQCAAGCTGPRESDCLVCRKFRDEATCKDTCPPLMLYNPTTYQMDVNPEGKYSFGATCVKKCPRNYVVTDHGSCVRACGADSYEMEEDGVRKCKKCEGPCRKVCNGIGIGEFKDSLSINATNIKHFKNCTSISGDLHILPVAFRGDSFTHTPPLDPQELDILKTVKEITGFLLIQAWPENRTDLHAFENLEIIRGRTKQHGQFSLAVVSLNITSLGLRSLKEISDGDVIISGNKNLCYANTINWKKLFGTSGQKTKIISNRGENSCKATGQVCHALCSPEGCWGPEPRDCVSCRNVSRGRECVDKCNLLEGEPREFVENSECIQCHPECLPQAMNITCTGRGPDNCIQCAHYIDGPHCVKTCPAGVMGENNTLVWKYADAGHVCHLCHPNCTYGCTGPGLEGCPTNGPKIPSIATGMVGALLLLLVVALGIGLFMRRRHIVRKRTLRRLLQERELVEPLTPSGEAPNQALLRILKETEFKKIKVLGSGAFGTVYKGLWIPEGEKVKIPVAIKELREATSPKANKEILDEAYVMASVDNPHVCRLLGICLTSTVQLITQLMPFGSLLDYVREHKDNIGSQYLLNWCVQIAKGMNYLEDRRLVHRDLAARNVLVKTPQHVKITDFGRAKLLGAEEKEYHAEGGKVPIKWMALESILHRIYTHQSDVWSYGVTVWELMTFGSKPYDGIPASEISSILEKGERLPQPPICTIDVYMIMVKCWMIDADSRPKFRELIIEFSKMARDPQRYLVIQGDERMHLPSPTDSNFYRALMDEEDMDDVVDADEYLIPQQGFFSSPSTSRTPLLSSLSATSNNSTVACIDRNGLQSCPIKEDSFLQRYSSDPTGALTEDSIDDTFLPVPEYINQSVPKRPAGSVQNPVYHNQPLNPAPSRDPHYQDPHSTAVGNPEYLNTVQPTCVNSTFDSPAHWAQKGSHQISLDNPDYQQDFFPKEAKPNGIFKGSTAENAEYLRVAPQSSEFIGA
Chain of EGFR (L858R/T790M/C797S) (P00533 25-1210 T790M/C797S/L858R): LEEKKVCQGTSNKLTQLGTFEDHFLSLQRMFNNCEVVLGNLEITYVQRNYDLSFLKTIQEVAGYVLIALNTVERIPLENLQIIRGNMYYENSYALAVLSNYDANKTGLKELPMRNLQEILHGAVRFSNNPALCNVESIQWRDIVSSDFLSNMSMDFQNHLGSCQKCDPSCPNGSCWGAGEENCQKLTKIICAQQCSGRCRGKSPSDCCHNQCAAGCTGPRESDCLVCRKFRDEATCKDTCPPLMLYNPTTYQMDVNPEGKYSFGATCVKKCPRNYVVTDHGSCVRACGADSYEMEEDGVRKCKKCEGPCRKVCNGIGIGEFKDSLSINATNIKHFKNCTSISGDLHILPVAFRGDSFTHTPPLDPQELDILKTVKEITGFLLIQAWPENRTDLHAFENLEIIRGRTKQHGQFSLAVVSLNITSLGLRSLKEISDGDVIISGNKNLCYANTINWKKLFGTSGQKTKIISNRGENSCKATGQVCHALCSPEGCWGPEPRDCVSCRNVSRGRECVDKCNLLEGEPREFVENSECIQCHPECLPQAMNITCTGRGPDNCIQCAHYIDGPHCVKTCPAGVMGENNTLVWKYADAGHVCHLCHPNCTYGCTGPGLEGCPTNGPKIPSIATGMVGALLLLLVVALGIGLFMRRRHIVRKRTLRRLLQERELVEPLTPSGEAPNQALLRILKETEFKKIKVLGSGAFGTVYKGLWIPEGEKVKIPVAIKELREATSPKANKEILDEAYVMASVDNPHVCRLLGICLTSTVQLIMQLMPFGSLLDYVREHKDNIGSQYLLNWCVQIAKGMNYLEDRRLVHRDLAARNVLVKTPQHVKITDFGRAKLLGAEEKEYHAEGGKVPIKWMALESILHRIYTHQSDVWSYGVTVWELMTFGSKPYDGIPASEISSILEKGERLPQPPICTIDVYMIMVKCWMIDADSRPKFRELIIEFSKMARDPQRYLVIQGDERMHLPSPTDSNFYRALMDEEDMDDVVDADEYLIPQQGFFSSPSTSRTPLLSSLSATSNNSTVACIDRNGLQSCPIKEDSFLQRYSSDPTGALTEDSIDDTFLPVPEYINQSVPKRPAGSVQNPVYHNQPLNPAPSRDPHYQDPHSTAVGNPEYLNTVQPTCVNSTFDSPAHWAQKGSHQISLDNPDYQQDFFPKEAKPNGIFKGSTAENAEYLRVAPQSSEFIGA

Row | CLint scaled at 1 μM [1] | GI50 [2] | GI50 [3] | IC50 [4] | IC50 [5] | GI50 [6] | GI50 [7] | Structure (SMILES)
1 | 14.2 mL/min/kg | 5.1 nM | 5.8 nM | 0.43 nM | 0.6 nM | 7.8 nM | 7.7 nM | CC(C)c1ccc(N2C[C@H](CS(C)(=O)=O)[C@H]2C)c2cnc(Nc3ccnc(-c4cnn(S(=O)(=O)C5CC5)c4)n3)cc12 [Compound H12]
2 | < 8.6 mL/min/kg | 4.4 nM | 14 nM | 0.05 nM | 2 nM | 8.4 nM | 18 nM | CC(C)c1ccc(N2CC(N(C)S(C)(=O)=O)C2)c2cnc(Nc3ccnc(N4CC[C@@H](O)[C@@H](F)C4)n3)cc12 [Compound P39a]
